{"source": "patent US6825177B2", "about": "“Aryl phosphate derivatives of d4T with potent anti-viral activity” (Parker Hughes Institute, priority 2000, dated 2004)", "key": {"[1]": {"assay": "Pharmacokinetics after oral administration of HI-113", "type": "in vivo, Balb/c mice", "method": "Female Balb/c mice (6-8 weeks old) from Taconic (Germantown, N.Y.) were housed in a controlled environment (12-hours of light/12-hours of dark, 22±1° C., 60±10% relative humidity), which is fully accredited by the USDA. All rodents were housed in microisolator cages (Lab Products, Inc., N.J.) containing autoclaved bedding. The mice were allowed free access to autoclaved pellet food and tap water throughout the study. All animal care procedures conformed to the Guide for the Care and Use of Laboratory Animals (National Research Council, National Academy Press, Washington D.C. 1996).\nSampling time points were 0, 2, 5, 10, 15, 30, 45, 60, 120, 240 and 360 minutes after the gavage. […]\nPharmacokinetic modeling and parameter calculations were carried out using the WinNonlin Professional Version 3.0 (Pharsight, Inc., Mountain, Calif.) pharmacokinetics software (Chen et al., Pharm. Res., 16, 1003 (1999); Chen et al., Pharm. Res., 16, 117 (1999); Chen et al., J. Clin. Pharmacol., 39, 1248 (1999); Uckun et al., Clin. Cancer Res., 5, 2954 (1999); and Uckun et al., J. Pharmacol. Exp. Ther., 291, 1301 (1999)). […] The area under the concentration-time curve (AUC) was calculated according to the linear trapezoidal rule between the first sampling time (0 hours) and the last sampling time plus C/k, where C is the concentration of the last sampling and k is the elimination rate constant. […]"}, "[2]": {"assay": "Pharmacokinetics of Ala-d4T-MP and its metabolite after intravenous Ala-d4T-MP", "type": "in vivo, Balb/c mice", "method": "(§5) Female Balb/c mice (6-8 weeks old) from Taconic (Germantown, N.Y.) were housed in a controlled environment (12-hours of light/12-hours of dark, 22±1° C., 60±10% relative humidity), which is fully accredited by the USDA. All rodents were housed in microisolator cages (Lab Products, Inc., N.J.) containing autoclaved bedding. The mice were allowed free access to autoclaved pellet food and tap water throughout the study.\nBlood samples (˜500 μL) were obtained from the ocular venous plexus by retro-orbital venipuncture at 0, 2, 5, 10, 15, 30, 45, 60, 120, 240 and 360 minutes after intravenous injection. […]\nPharmacokinetic modeling and parameter calculations were carried out using the WinNonlin Professional Version 3.0 (Pharsight, Inc., Mountain, Calif.) pharmacokinetics software (Chen et al., Pharm. Res., 16, 1003 (1999); Chen et al., Pharm. Res., 16, 117 (1999); Chen et al., J. Clin. Pharmacol., 39, 1248 (1999); Uckun et al., Clin. Cancer Res., 5, 2954 (1999); and Uckun et al., J. Pharmacol. Exp. Ther., 291, 1301 (1999)). […] The area under the concentration-time curve (AUC) was calculated according to the linear trapezoidal rule between the first sampling time (0 hours) and the last sampling time plus C/k, where C is the concentration of the last sampling and k is the elimination rate constant. The systemic clearance (CL) was determined by dividing the dose by the AUC. […]"}, "[3]": {"assay": "Pharmacokinetics of HI-113 and its metabolites after intravenous HI-113", "method": "as §5\n(§6) All collected blood samples were heparinized and centrifuged at 7000×g for 5 minutes to separate the plasma fraction from the whole blood. The plasma samples were then processed immediately using the extraction procedure described above.\nAn appropriate model was chosen on the basis of the lowest sum of weighted squared residuals, the lowest Schwartz Criterion (SC), the lowest Akaike's Information Criterion (AIC) value, the lowest standard errors of the fitted parameters, and the dispersion of the residuals. The elimination half-life was estimated by linear regression analysis of the terminal phase of the plasma concentration-time profile. […] The systemic clearance (CL) was determined by dividing the dose by the AUC."}, "[4]": {"assay": "Stability of HI-113 and Ala-d4T-MP in whole blood", "type": "in vitro ADME", "settings": "37° C.; for stability in whole blood: 250 μM HI-113, 100 μM Ala-d4T-MP", "text": "(§1) The HPLC system used for these studies was a Hewlett Packard (Palo Alto, Calif.) series 1100 instrument equipped with a quaternary pump, an autosampler, an automatic electronic degasser, an automatic thermostatic column compartment, a diode array detector and a computer with Chemstation software for data analysis (Chen et al., J. Chromatogr. B., 724, 157 (1999); Chen et al., J. Chromatogr. B., 727, 205 (1999); and Chen et al., J. Liq. Chromatogr., 22, 1771 (1999)). The analytical column used was a Zobax SB-Phenyl (5 μm, Hewlett Packard, Inc.) column attached to a guard column (Hewlett Packard, Inc.). The column was equilibrated prior to data collection. […] The detection wavelength was 268 nm, the peakwidth was less than 0.03 minutes, the response time was 0.5 seconds, and the slit was 4 nm.\n(§2) Plasma samples (200 μL) were mixed 1:4 with acetone (800 μL) and vortexed for at least 30 seconds. Following centrifugation, the supernatant was transferred into a clean tube and was dried under nitrogen. A 50 μL solution of 50% methanol in 200 mM HCl was used to reconstitute the extraction residue, and 40 μL was injected into the HPLC.\n(§3) The whole blood samples were placed in a 37° C. water bath, while plasma samples were stored at −20° C. At a predetermined time, an aliquot (100 μl) of spiked whole blood or plasma was extracted by adding 400 μl of acetone to induce precipitation of proteins, as described above."}, "[5]": {"assay": "Stability in simulated intestinal fluid", "type": "in vitro ADME", "settings": "100 μM, 37° C.", "experimental": "(§4) The spiked fluids were then placed in a 37° C. water bath. At a predetermined time, 100 μl aliquots of the spiked gastric or intestinal fluid were extracted by adding 400 μl of acetone as discussed above."}, "[6]": {"assay": "Stability of HI-113 and Ala-d4T-MP in plasma", "type": "in vitro ADME", "settings": "for stability in plasma: 250 μM HI-113, 100 μM Ala-d4T-MP", "text": "as §1, §2, §3"}, "[7]": {"settings": "for effect of esterase inhibitor on decomposition of HI-113 in plasma: plasma pre-incubated with inhibitor at 37° C. for 30 minutes, 250 μM HI-113", "experimental": "Plasma samples were pre-incubated with the esterase inhibitors paraoxon (final concentration of 0.1 mM), physostigmine (final concentration of 0.1 mM), and EDTA (final concentration of 1M) at 37° C. for 30 minutes. […] The data in Table 1 was the mean percent hydrolysis from two experiments."}, "HIV-2": {"tested_on": "HIV-2", "settings": "PBMNC; cited from earlier work"}, "[8]": {"assay": "Stability in simulated gastric fluid", "type": "in vitro ADME", "settings": "100 μM, 37° C.", "experimental": "as §4"}, "[9]": {"assay": "Stability of HI-113 in murine liver homogenates", "type": "in vitro ADME, Balb/c mice", "settings": "100 μM", "experimental": "Fresh mouse liver was obtained from Balb/c mice and homogenated in 1×PBS (1:1, W/V) using a Polytron (PT-MR2000) homogenizer (Kinematical AG, Littau, Switzerland). […] At a predetermined time, an aliquot (100 μl) of spiked liver homogenate was extracted by adding 400 μl of acetone to induce precipitation of proteins, as described above."}, "[10]": {"tested_on": "HIV replication in thymidine kinase-deficient T-cells", "settings": "compared with d4T; cited from earlier work"}, "[11]": {"tested_on": "zidovudine (ZVD/AZT)-resistant HIV-1 strains", "settings": "PBMNC; cited from earlier work"}, "[12]": {"tested_on": "HIV replication in human peripheral blood mononuclear cells (PBMNC)", "settings": "compared with d4T; cited from earlier work"}, "[13]": {"assay": "Pharmacokinetics of d4T after intravenous d4T", "type": "in vivo, Balb/c mice", "settings": "i.v. d4T 40 mg/kg", "method": "as §5\nBlood samples (˜500 μL) were obtained from the ocular venous plexus by retro-orbital venipuncture at 0, 2, 5, 10, 15, 30, 45, 60, 120, 240 and 360 minutes after intravenous injection.\nas §6\nPharmacokinetic modeling and parameter calculations were carried out using the WinNonlin Professional Version 3.0 (Pharsight, Inc., Mountain, Calif.) pharmacokinetics software (Chen et al., Pharm. Res., 16, 1003 (1999); Chen et al., Pharm. Res., 16, 117 (1999); Chen et al., J. Clin. Pharmacol., 39, 1248 (1999); Uckun et al., Clin. Cancer Res., 5, 2954 (1999); and Uckun et al., J. Pharmacol. Exp. Ther., 291, 1301 (1999)). An appropriate model was chosen on the basis of the lowest sum of weighted squared residuals, the lowest Schwartz Criterion (SC), the lowest Akaike's Information Criterion (AIC) value, the lowest standard errors of the fitted parameters, and the dispersion of the residuals. The elimination half-life was estimated by linear regression analysis of the terminal phase of the plasma concentration-time profile. The area under the concentration-time curve (AUC) was calculated according to the linear trapezoidal rule between the first sampling time (0 hours) and the last sampling time plus C/k, where C is the concentration of the last sampling and k is the elimination rate constant. The systemic clearance (CL) was determined by dividing the dose by the AUC. The metabolic clearance of the parent drug, the formation clearance of the metabolite, the clearance elimination of the metabolite, and the distribution clearance of the metabolite were estimated by simultaneous fitting of the concentration of parent drug and metabolites as a function of time curve to pharmacokinetic models (see FIGS. 7A & 8A) specified as a system of differential equations (Gabrielsson & Weiner, Phamacokinetic/Phamacodynamic Data Analysis: Concepts and Applications, Swedish Pharmaceutical Press (1997))."}, "[14]": {"settings": "i.v. HI-113 100 mg/kg, plasma, estimated from composite curve of pooled data"}, "[15]": {"settings": "i.v. HI-113 100 mg/kg, mean ± S.E.M"}, "[16]": {"settings": "plasma, estimated from composite curve of pooled data"}}, "note": "Read-outs that look alike come from different tables or passages of the source."}
{"smiles": "Cc1cn([C@H]2C=C[C@@H](COP(=O)(O)NC(C)C(=O)O)O2)c(=O)[nH]c1=O", "note": "(stereo partly shown) [Ala-d4T-MP, alaninyl-d4T-monophosphate]", "values": [{"measurement": "estimated bioavailability of the metabolite", "setting": "[1]; after oral administration of HI-113", "result": "approximately 12%"}, {"measurement": "CLm1 as share of the total systemic clearance", "setting": "[2]; i.v. Ala-d4T-MP", "result": 99, "unit": "%"}, {"measurement": "fraction of HI-113 converted to the metabolite", "setting": "[3]; after intravenous HI-113", "result": 23, "unit": "%"}, {"measurement": "stability in whole blood", "setting": "[4]", "result": "stable in both whole blood and plasma for 1 day"}, {"measurement": "stability in intestinal fluid", "setting": "[5]", "result": "stable"}, {"measurement": "stability in plasma", "setting": "[6]", "result": "stable in both whole blood and plasma for 1 day"}]}
{"smiles": "O=C(O)CN(CCN(CC(=O)O)CC(=O)O)CC(=O)O", "note": "[EDTA, reference compound]", "values": [{"measurement": "effect of esterase inhibitor on decomposition of HI-113 in plasma", "setting": "[7]", "result": "not affected"}]}
{"smiles": "COC(=O)C(C)NP(=O)(OC[C@@H]1C=C[C@H](n2cc(C)c(=O)[nH]c2=O)O1)Oc1ccc(Br)cc1", "note": "(stereo partly shown) [HI-113, d4T-5′-[p-bromophenylmethoxyalaninyl phosphate]]", "values": [{"measurement": "concentration inhibiting replication of HIV-2", "setting": "HIV-2", "result": "nanomolar concentrations"}, {"measurement": "stability in gastric fluid", "setting": "[8]", "result": "relatively stable in gastric fluid for 8 hours"}, {"measurement": "plasma concentration of the parent compound (below the detection limit)", "setting": "[1]; oral HI-113 100 mg/kg", "result": "< 500", "unit": "nM"}, {"measurement": "percent hydrolysis of HI-113 in plasma", "setting": "[7]; EDTA (1 mM), 10 min", "result": 100, "unit": "%"}, {"measurement": "percent hydrolysis of HI-113 in plasma", "setting": "[7]; EDTA (1 mM), 15 min", "result": 100, "unit": "%"}, {"measurement": "percent hydrolysis of HI-113 in plasma", "setting": "[7]; EDTA (1 mM), 30 min", "result": 100, "unit": "%"}, {"measurement": "percent hydrolysis of HI-113 in plasma", "setting": "[7]; EDTA (1 mM), 60 min", "result": 100, "unit": "%"}, {"measurement": "percent hydrolysis of HI-113 in plasma", "setting": "[7]; EDTA (1 mM), 120 min", "result": 100, "unit": "%"}, {"measurement": "percent hydrolysis of HI-113 in plasma", "setting": "[7]; EDTA (1 mM), arylesterase, 5 min", "result": 99, "unit": "%"}, {"measurement": "percent hydrolysis of HI-113 in plasma", "setting": "[7]; Paraoxon (0.1 mM), 10 min", "result": 2, "unit": "%"}, {"measurement": "percent hydrolysis of HI-113 in plasma", "setting": "[7]; Paraoxon (0.1 mM), 15 min", "result": 2, "unit": "%"}, {"measurement": "percent hydrolysis of HI-113 in plasma", "setting": "[7]; Paraoxon (0.1 mM), 30 min", "result": 2, "unit": "%"}, {"measurement": "percent hydrolysis of HI-113 in plasma", "setting": "[7]; Paraoxon (0.1 mM), 60 min", "result": 3, "unit": "%"}, {"measurement": "percent hydrolysis of HI-113 in plasma", "setting": "[7]; Paraoxon (0.1 mM), 120 min", "result": 24, "unit": "%"}, {"measurement": "percent hydrolysis of HI-113 in plasma", "setting": "[7]; Paraoxon (0.1 mM), cholinesterase & carboxylesterase, 5 min", "result": 0, "unit": "%"}, {"measurement": "percent hydrolysis of HI-113 in plasma", "setting": "[7]; Physostigmine (0.1 mM), 10 min", "result": 65, "unit": "%"}, {"measurement": "percent hydrolysis of HI-113 in plasma", "setting": "[7]; Physostigmine (0.1 mM), 15 min", "result": 76, "unit": "%"}, {"measurement": "percent hydrolysis of HI-113 in plasma", "setting": "[7]; Physostigmine (0.1 mM), 30 min", "result": 89, "unit": "%"}, {"measurement": "percent hydrolysis of HI-113 in plasma", "setting": "[7]; Physostigmine (0.1 mM), 60 min", "result": 100, "unit": "%"}, {"measurement": "percent hydrolysis of HI-113 in plasma", "setting": "[7]; Physostigmine (0.1 mM), 120 min", "result": 100, "unit": "%"}, {"measurement": "percent hydrolysis of HI-113 in plasma", "setting": "[7]; Physostigmine (0.1 mM), cholinesterase, 5 min", "result": 43, "unit": "%"}, {"measurement": "percent hydrolysis of HI-113 in plasma", "setting": "[7]; no inhibitor, 5 min, 250 μM HI-113, mean of two experiments", "result": 95, "unit": "%"}, {"measurement": "percent hydrolysis of HI-113 in plasma", "setting": "[7]; no inhibitor, 10 min", "result": 98, "unit": "%"}, {"measurement": "percent hydrolysis of HI-113 in plasma", "setting": "[7]; no inhibitor, 15 min", "result": 99, "unit": "%"}, {"measurement": "percent hydrolysis of HI-113 in plasma", "setting": "[7]; no inhibitor, 30 min", "result": 100, "unit": "%"}, {"measurement": "percent hydrolysis of HI-113 in plasma", "setting": "[7]; no inhibitor, 60 min", "result": 100, "unit": "%"}, {"measurement": "percent hydrolysis of HI-113 in plasma", "setting": "[7]; no inhibitor, 120 min", "result": 100, "unit": "%"}, {"measurement": "VSS", "setting": "[3]; [14]", "result": 0.8199, "unit": "L/kg"}, {"measurement": "CL", "setting": "[3]; [15]", "result": "(174.5 ± 13.2) ml/min/kg"}, {"measurement": "VSS", "setting": "[3]; [15]", "result": "(920 ± 127.4) ml/kg"}, {"measurement": "time within which HI-113 decomposed in liver homogenate", "setting": "[9]", "result": "≤ 30", "unit": "min"}, {"measurement": "potency in inhibiting HIV replication", "setting": "[10]", "result": "substantially more potent than d4T"}, {"measurement": "stability in whole blood", "setting": "[4]", "result": "very unstable"}, {"measurement": "time until decomposition was complete in whole blood", "setting": "[4]; 250 μM", "result": "≤ 30", "unit": "min"}, {"measurement": "HI-113 decomposed in whole blood", "setting": "[4]; 5 minutes, 250 μM", "result": 68, "unit": "%"}, {"measurement": "HI-113 decomposed in whole blood", "setting": "[4]; 10 minutes, 250 μM", "result": 87, "unit": "%"}, {"measurement": "HI-113 decomposed in whole blood", "setting": "[4]; 15 minutes, 250 μM", "result": 92, "unit": "%"}, {"measurement": "stability in intestinal fluid", "setting": "[5]", "result": "not stable"}, {"measurement": "HI-113 decomposed in intestinal fluid", "setting": "[5]; within 2 hours", "result": "approximately 94%"}, {"measurement": "concentration inhibiting replication of zidovudine (ZVD/AZT)-resistant HIV-1 strains", "setting": "[11]", "result": "nanomolar concentrations"}, {"measurement": "potency in inhibiting HIV replication", "setting": "[12]", "result": "substantially more potent than d4T"}, {"measurement": "time until decomposition was complete in plasma", "setting": "[6]; 250 μM", "result": "≤ 30", "unit": "min"}, {"measurement": "stability in plasma", "setting": "[6]", "result": "very unstable"}, {"measurement": "HI-113 decomposed following incubation with plasma", "setting": "[6]; after 5 minutes, 250 μM", "result": "over 95%"}]}
{"smiles": "Cc1cn([C@H]2C=C[C@@H](CO)O2)c(=O)[nH]c1=O", "note": "[d4T, 2′,3′-didehydro-2′,3′-dideoxythymidine]", "values": [{"measurement": "formation of d4T from intravenously administered Ala-d4T-MP (fraction converted)", "setting": "[2]; female, Balb/c, mouse, in vivo, iv", "result": 15, "unit": "%"}, {"measurement": "t1/2", "setting": "[3]; [14]", "result": 1.913, "unit": "h"}, {"measurement": "AUC", "setting": "[13]; [16]", "result": 12227.1, "unit": "µM·min"}, {"measurement": "CL", "setting": "[13]; [16]", "result": 15.0, "unit": "mL/min/kg"}, {"measurement": "VSS", "setting": "[13]; [16]", "result": 0.6578, "unit": "L/kg"}, {"measurement": "t1/2", "setting": "[13]; [16]", "result": 0.505, "unit": "h"}, {"measurement": "CL", "setting": "[13]; mean ± S.E.M", "result": "(15.2 ± 0.7) ml/min/kg"}, {"measurement": "VSS", "setting": "[13]; mean ± S.E.M", "result": "(581.8 ± 62.8) ml/kg"}, {"measurement": "t1/2", "setting": "[13]; mean ± S.E.M", "result": "(26.6 ± 1.2) min"}]}
{"smiles": "CCOP(=O)(OCC)Oc1ccc([N+](=O)[O-])cc1", "note": "[paraoxon, reference compound]", "values": [{"measurement": "effect of esterase inhibitor on decomposition of HI-113 in plasma", "setting": "[7]", "result": "significantly inhibited"}]}
